Reference: patent US9150579B2, “Selective PI3K delta inhibitors” (Rhizen Pharmaceuticals SA, priority 2012, dated 2015)

Legend:
[1] = molecular target: PI3Kβ (Mus musculus (Mouse), UniProt Q8BTI9); conditions: Cell-based; versus PI3Kδ
Procedure: (§1) Compound specificity towards PI3Kδ was determined in an IgM-induced B cell proliferation assay. B-cells isolated from blood of healthy subjects were seeded in a 96-well tissue culture plate and incubated with desired concentrations of compound for 30 min. Cells were stimulated with 5 μg/ml purified goat anti-human IgM. Growth was assessed using the 3-[4,5-dimethylthiazol-2-yl]-2,5-diphenyltetrazolium bromide (MTT) dye reduction test. For selectivity against PI3K α, β, or γ isoforms, NIH-3T3 or RAW macrophages were seeded in a 6-well tissue culture plate and incubated overnight. Complete medium was replaced with serum-free media the following day and compound at the desired concentrations were added. After 15 minutes, 20 ng/ml PDGF, 5 μM LPA, or 50 ng/ml c5a was added and incubated for an additional 10 minutes. Cells were lysed and AKT phosphorylation was determined by Western Blotting. Intensity of the bands was determined using ImageJ 1.42q (NIH, USA) and normalized to Actin (loading control).

[2] = molecular target: PI3Kγ (Mus musculus (Mouse), UniProt Q9JHG7); conditions: Cell-based; versus PI3Kδ
Procedure: as §1

[3] = molecular target: PI3Kα (Mus musculus (Mouse), UniProt P42337); conditions: Cell-based; versus PI3Kδ
Procedure: as §1

[4] = molecular target: PI3Kδ (Homo sapiens (Human), UniProt O00329); experiment: Assay 4a: IgM-induced B cell proliferation assay (PI3Kδ); conditions: Cell-based
Procedure: as §1

[5] = Metabolic stability in human liver microsomes; type: in vitro ADME
Procedure: (§2) Metabolic stability studies were conducted using mouse, rat, and human liver microsomes. The protocol for the studies with mouse, rat, and human liver microsomes (all from BD Gentest, USA) is provided below. In brief, 0.4 mg protein was preincubated with 2 mM NADPH (cofactor) in phosphate buffer (pH˜7.4) for 15 min at 37° C. and then added with 1 μM test item and incubated further for 60 minutes in triplicate. The reaction mixture was terminated with methanol containing an internal standard and centrifuged further to analyze the test item remaining in the supernatant by LC-MS/MS. The percent parent compound remaining was calculated in comparison with similar samples terminated at 0 minutes.

[6] = system: pAKT in AML patient bone marrow leukemic cells; experiment: Assay 6-II: pAKT analysis of AML patient bone marrow sample (pAKT ELISA); type: cell-based, human
Procedure: 6-II: pAKT analysis of AML patient bone marrow sample using pAKT ELISA kit: Mononuclear cells were extracted by the Ficoll method and seeded in plates. The cells were treated by different compounds for 48 hrs before they were analyzed by pAKT ELISA kit following the product protocol. Briefly, 1×10^6 cells were transferred into an ELISA kit well and lyzed with 10 μL 5× Cell Lysis Mix (phospho-AKT 1/2/3 (Ser473) InstantOne™ ELISA Kit, eBioscience, 85-86042). The cells were then incubated with 50 μl antibody cocktail for 1 hr at room temp. on a microplate shaker (˜300 rpm). After incubating with detection reagent, the result was measured using a SpectraMAX Plus microplate spectrophotometer set at 450 nm.

[7] = system: AKT phosphorylation in THP-1, HL-60, MOLT-4, RPMI-8226, or DLBCL cells; experiment: Assay 3: Inhibition of AKT phosphorylation in leukemic cell lines; type: cell-based; conditions: 48 hours, Western Blotting
Procedure: Inhibition of AKT phosphorylation in leukemic cell lines: THP-1, HL-60, MOLT-4, RPMI-8226, or DLBCL cells were incubated with desired concentrations of compound for 48 hours. Cells were lysed and pAKT was determined by Western Blotting. Bands were quantified using ImageJ and normalized to actin.

[8] = molecular target: PI3K β (Homo sapiens (Human), UniProt P42338); experiment: Assay 1: Fluorescent (HTRF) determination of PI3K enzyme activity, beta; type: biochemical
Procedure: (§3) The homogenous time resolved fluorescence (HTRF) assay allows detection of 3,4,5-triphosphate (PIP3) formed as a result of phosphorylation of phosphotidylinositol 4,5-biphosphate (PIP2) by PI3K isoforms such as α, β, γ or δ.
(§4) PI3K isoform activity for α, β, γ or δ was determined using a PI3K human HTRF™ Assay Kit (Millipore, Billerica, Mass.) with modifications. All incubations were carried out at room temperature. […] After the initial incubation, 5 μl/well of 400 μM ATP was added and incubated for an additional 30 minutes. Reaction was terminated by adding 5 μl/well stop solution (Millipore, Billerica, Mass.). Five microliters of detection mix (Millipore, Billerica, Mass.) were then added to each well and was incubated for 6-18 h in the dark.

[9] = system: PI3Kδ signalling in basophils; experiment: Assay 4: Inhibition of PI3Kδ signalling in basophils from human whole blood (anti-FcεR1 induced CD63 expression); conditions: read-out: EC50, inhibition of anti-FcεR1 mediated CD63 expression
Procedure: PI3Kδ signalling in basophils manifested by an alteration of anti-FcεR1 induced CD63 expression is a useful pharmacodynamic marker determined using the Flow2CAST® kit (Buhlmann Laboratories, Switzerland). Briefly, it involves the following steps: • Mix the anti-coagulated blood sample by inverting the venipuncture tube several times • Prepare fresh and pyrogen-free 3.5 ml polypropylene or polystyrene tubes suitable for Flow Cytometry measurements • Add 49 μl of patient's whole blood to each tube. • Add 1 μl of 10% DMSO (background) or compound (10% DMSO) to the assigned tubes and mix gently. Incubate at room temperature for 15 min • Pipette 50 μl of the Stimulation buffer (background) or anti-FcεRI Ab to each tube • Add 100 μl of Stimulation Buffer to each tube • Mix gently. […] (using an incubator will take about 10 minutes longer incubation time due to less efficient heat transfer) • Add 2 ml pre-warmed (18-28° C.) Lysing Reagent to each tube, mix gently • Incubate for 5-10 minutes at 18-28° C. • Centrifuge the tubes for 5 minutes at 500×g • Decant the supernatant by using blotting paper • Resuspend the cell pellet with 300-800 μl of Wash Buffer • Vortex gently and acquire the data on the flow cytometer within the same day. • Percent CD63 positive cells within the gated basophil population are to be determined in different treatment groups and normalized to vehicle control.

[10] = Metabolic stability in rat liver microsomes; type: in vitro ADME; conditions: 1 μM test item, 60 minutes, NADPH
Procedure: as §2

[11] = molecular target: PI3K γ (Homo sapiens (Human), UniProt P48736); experiment: Assay 1: Fluorescent (HTRF) determination of PI3K enzyme activity, gamma; type: biochemical
Procedure: as §3, §4

[12] = Metabolic stability in mouse liver microsomes; type: in vitro ADME; conditions: 1 μM test item, 60 minutes, NADPH
Procedure: as §2

[13] = system: leukemic cells; experiment: Assay 5: Apoptosis in leukemic cell lines (in situ Caspase 3 kit); type: cell-based; conditions: 24 hrs
Procedure: Apoptosis in leukemic cells was determined using an in situ Caspase 3 kit (Millipore, US) as outlined below: • Seed leukemic cells at a density of 1×10^6 cells/well in a 6 well plate • Add test compound/DMSO at desired concentrations • Incubate the plate for 24 hrs at 37° C. in 5% CO2 incubator • Collect cells in a 2 ml centrifuge tube • Add 1.6 μL of freshly prepared 5× FLICA reagent and mix cells by slightly flicking the tubes • Incubate tubes for 1 hour at 37° C. under 5% CO2 • Add 2 ml of 1× wash buffer to each tube and mix • Centrifuge cells at <400×g for 5 minutes at room temperature. • Carefully remove and discard supernatant, and gently vortex cell pellet to disrupt any cell-to-cell clumping. • Resuspend cell pellet in 300 ul of 1× wash buffer • Place 100 μL of each cell suspension into each of two wells of a black microtiter plate. Avoid creation of bubbles. • Read […] of each microwell using an excitation wavelength of 490 nm and an emission wavelength of 520 nm • Percent increase in caspase-3 activity manifested by an increase in fluorescence compared to the control blank is to be calculated.

[14] = molecular target: PI3K α (Homo sapiens (Human), UniProt P42336); experiment: Assay 1: Fluorescent (HTRF) determination of PI3K enzyme activity, alpha; type: biochemical
Procedure: as §3, §4

Sequence of PI3K β (P42338 whole entry, canonical isoform): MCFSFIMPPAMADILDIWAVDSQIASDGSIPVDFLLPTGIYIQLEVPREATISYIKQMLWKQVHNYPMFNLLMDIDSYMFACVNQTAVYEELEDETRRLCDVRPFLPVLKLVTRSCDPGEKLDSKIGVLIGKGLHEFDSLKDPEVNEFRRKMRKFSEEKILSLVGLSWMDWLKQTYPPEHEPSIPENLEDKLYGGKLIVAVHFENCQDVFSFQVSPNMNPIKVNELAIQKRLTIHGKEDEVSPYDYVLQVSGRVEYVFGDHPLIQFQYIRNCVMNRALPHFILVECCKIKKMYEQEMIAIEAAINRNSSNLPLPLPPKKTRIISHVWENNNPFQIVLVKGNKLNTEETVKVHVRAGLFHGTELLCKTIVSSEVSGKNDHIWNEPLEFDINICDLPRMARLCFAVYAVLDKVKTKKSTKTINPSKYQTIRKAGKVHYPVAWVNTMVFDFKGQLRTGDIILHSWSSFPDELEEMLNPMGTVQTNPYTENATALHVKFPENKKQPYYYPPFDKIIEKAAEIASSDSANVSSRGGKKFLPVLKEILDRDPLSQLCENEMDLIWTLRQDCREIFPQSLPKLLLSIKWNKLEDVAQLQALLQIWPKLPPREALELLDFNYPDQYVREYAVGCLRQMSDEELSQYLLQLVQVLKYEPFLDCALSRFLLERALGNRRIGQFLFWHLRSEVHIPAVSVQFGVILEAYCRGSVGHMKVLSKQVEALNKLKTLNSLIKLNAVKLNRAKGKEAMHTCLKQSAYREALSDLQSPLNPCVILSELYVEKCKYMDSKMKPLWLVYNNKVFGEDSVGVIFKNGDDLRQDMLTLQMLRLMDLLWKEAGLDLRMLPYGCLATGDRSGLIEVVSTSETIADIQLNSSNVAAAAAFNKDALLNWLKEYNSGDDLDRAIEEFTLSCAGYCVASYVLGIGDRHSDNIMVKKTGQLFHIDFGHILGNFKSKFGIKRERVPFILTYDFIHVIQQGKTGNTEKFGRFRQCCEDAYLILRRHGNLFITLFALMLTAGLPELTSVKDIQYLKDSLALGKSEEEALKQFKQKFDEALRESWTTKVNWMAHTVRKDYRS
Sequence of PI3K β (P27986 whole entry partner, canonical isoform): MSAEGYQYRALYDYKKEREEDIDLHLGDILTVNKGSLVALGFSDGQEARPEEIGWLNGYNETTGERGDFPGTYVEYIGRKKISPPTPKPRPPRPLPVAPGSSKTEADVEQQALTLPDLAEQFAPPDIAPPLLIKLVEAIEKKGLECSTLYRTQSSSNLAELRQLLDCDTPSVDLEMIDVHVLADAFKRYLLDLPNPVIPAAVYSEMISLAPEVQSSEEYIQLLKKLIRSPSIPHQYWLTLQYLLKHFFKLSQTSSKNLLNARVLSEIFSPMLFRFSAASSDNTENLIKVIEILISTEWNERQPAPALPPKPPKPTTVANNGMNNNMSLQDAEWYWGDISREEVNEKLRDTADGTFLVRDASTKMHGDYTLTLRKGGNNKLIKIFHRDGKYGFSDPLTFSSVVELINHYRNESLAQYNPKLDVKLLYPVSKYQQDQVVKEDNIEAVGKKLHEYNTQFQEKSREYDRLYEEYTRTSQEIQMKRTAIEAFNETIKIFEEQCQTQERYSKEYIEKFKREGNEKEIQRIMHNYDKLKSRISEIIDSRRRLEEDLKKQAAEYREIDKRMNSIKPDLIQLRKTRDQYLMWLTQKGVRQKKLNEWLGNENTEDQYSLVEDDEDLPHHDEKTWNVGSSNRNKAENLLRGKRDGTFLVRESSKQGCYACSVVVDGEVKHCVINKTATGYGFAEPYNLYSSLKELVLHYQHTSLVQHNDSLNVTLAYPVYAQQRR
Sequence of PI3K α (P42336 whole entry): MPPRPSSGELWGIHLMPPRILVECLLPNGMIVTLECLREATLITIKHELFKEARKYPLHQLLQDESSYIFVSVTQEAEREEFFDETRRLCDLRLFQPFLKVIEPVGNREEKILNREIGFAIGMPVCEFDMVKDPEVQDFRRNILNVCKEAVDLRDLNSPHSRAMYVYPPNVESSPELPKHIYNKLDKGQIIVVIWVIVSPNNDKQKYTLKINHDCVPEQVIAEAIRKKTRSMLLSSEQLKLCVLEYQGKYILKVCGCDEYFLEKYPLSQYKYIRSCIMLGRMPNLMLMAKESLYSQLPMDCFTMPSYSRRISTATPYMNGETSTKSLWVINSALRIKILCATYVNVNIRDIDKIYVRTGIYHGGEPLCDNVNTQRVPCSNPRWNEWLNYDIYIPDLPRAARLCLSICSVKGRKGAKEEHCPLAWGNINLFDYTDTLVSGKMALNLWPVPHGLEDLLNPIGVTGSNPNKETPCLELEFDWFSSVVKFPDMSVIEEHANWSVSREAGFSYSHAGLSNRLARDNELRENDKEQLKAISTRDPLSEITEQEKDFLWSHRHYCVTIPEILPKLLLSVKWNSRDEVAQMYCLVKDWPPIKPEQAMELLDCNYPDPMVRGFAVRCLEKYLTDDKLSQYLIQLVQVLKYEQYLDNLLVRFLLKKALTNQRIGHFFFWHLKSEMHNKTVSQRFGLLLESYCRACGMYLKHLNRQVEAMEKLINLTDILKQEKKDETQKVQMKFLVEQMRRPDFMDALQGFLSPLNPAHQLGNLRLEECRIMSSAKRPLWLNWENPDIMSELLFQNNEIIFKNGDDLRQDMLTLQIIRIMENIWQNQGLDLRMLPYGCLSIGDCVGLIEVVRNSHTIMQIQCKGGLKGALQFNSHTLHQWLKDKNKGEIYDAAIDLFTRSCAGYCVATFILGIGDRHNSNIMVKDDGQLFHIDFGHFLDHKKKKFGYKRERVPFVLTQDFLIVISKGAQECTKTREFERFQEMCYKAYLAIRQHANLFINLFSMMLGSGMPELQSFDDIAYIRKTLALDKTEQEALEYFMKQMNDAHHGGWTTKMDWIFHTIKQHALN
Sequence of PI3K α (P27986 whole entry partner): as the sequence (P27986 whole entry partner, canonical isoform) above
Sequence of PI3K γ (P48736 whole entry): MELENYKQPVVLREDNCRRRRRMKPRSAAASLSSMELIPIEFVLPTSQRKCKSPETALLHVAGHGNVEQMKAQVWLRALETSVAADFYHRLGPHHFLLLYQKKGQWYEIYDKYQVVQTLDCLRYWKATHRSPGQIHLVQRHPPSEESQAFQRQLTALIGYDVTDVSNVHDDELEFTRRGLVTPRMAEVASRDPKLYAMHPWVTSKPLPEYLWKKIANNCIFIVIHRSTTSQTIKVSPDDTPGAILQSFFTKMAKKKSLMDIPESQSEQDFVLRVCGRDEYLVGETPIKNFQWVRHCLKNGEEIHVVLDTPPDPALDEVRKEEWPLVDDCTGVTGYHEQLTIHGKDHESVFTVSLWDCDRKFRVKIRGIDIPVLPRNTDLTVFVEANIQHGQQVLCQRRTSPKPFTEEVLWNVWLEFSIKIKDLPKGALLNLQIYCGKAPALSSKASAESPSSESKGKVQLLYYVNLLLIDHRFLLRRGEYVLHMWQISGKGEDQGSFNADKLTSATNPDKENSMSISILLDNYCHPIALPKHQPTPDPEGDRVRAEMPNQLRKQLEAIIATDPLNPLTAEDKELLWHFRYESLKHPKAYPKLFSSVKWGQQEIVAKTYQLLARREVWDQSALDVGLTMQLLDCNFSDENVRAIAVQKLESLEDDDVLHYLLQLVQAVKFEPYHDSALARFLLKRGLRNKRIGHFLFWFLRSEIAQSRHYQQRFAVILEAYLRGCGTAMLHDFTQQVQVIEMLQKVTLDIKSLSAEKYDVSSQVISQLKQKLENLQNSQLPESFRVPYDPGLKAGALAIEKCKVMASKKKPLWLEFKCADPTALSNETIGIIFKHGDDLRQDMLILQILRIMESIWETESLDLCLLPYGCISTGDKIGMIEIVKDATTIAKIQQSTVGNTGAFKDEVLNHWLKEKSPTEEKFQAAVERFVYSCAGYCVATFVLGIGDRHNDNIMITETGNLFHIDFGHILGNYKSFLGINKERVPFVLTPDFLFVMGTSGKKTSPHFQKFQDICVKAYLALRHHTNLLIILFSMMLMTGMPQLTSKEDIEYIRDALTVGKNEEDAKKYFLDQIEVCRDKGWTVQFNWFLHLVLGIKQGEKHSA
Sequence of PI3Kδ (O00329 whole entry): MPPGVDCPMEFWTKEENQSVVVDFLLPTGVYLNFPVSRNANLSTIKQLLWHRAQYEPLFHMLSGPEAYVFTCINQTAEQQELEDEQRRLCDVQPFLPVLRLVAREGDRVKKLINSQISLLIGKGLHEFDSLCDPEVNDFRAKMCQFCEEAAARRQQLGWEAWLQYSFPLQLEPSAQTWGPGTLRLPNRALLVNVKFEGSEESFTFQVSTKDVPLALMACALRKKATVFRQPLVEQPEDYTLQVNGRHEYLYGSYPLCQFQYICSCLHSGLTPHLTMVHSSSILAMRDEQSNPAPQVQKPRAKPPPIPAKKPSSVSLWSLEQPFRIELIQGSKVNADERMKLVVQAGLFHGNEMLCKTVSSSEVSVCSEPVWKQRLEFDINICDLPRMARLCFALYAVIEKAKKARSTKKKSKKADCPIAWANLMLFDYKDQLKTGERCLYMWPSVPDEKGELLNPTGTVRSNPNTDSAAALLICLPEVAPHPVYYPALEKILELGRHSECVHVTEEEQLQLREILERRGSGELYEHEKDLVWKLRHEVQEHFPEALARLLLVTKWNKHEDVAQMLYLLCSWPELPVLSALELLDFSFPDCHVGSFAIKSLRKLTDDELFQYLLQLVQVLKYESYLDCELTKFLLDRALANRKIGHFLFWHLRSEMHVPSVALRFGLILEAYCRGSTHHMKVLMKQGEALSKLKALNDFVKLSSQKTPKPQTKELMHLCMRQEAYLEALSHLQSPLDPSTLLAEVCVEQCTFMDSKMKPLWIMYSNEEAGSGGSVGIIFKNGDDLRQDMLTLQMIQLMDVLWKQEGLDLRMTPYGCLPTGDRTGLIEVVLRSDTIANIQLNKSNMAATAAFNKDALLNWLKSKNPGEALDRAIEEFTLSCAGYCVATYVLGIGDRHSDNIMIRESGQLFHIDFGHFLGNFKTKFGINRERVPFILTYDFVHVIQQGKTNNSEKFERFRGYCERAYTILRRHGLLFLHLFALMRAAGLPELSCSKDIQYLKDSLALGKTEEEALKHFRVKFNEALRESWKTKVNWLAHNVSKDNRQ
Sequence of PI3Kδ (P27986 whole entry partner): as the sequence (P27986 whole entry partner, canonical isoform) above

## CC(C)Oc1ccc(-c2nn([C@@H](C)c3oc4ccccc4c(=O)c3-c3cccc(F)c3)c3ncnc(N)c23)cc1F [Compound A1, (S)-2-(1-(4-amino-3-(3-fluoro-4-isopropoxyphenyl)-1H-pyrazolo[3,4-d]pyrimidin-1-yl)ethyl)-3-(3-fluorophenyl)-4H-chromen-4-one]
[1]
  Fold-Selectivity PI3Kβ: >30 fold
[2]
  Fold-Selectivity PI3Kγ: >8 fold
[3]
  Fold-Selectivity PI3Kα: >1000 fold
[4]
  EC50: < 50 nM
[5]; 1 μM test item, 60 minutes, NADPH
  Metabolic stability in liver microsomes, Human (percent parent compound remaining): 54.5%
[5]; A1 vs A2, B1 vs B2
  fold greater metabolic stability in human liver microsomes than its enantiomer: ~5 fold
[6]
  AKT phosphorylation (dose dependence): dose dependent reduction
[6]; Homo sapiens, Bone marrow cell, 0.3 μM, 48 hrs
  inhibition at 0.3 µM: > 50%
[7]
  inhibition at 1 µM: 50 to 90%
[8]
  inhibition at 1 µM: 47.9%
[8]; Enzyme, versus PI3Kδ
  Fold-Selectivity PI3Kβ: >54 fold
[9]
  EC50: ≤ 100 nM
[10]
  Metabolic stability in liver microsomes, Rat (percent parent compound remaining): 35.8%
[11]
  inhibition at 1 µM: 80.6%
[11]; Enzyme, versus PI3Kδ
  Fold-Selectivity PI3Kγ: >9 fold
[12]
  Metabolic stability in liver microsomes, Mouse (percent parent compound remaining): 46.1%
[13]
  Caspase-3 activity: dose-dependently induced Caspase-3 activity
[14]
  inhibition at 1 µM: 8.91%
[14]; Enzyme, versus PI3Kδ
  Fold-Selectivity PI3Kα: >1000 fold
